This passage reports IC50 results from patent publication US10183947B2, “Pyrazole derivatives useful as 5-lipoxygenase activating protein (FLAP) inhibitors” (ASTRAZENECA AB, priority 2015, dated 2019).

The structures appear in SMILES notation. Like-named read-outs stand apart in the source and are kept apart here.

For assay [1], the target named is FLAP (human ALOX5AP expressed in COS-7 cell membranes) (Homo sapiens (Human), UniProt P20292). Description: FLAP Binding Assay (Test A), competition binding with 3H-MK591 as tracer. As to conditions: competition with 3H-MK591 (2 nM), membranes from COS-7 cells expressing human ALOX5AP, 60 min at rt. Here is the method: FLAP Binding Assay (Test A) Compounds were tested in a competition binding assay using ^3H-MK591 as tracer. […] Med. Chem. […] A 100,000×g pellet from COS-7 cells stably transfected with a plasmid expressing human ALOX5AP was the source of FLAP. […] Following filtration, filter plates were dried 12 h at RT (or 50° C. for 1 hour). 50 μL scintillant was then added, the filterplates were sealed and radioactivity was measured in a microbeta counter. Specific binding was defined as total binding minus non-specific binding. Total binding was defined as ^3H-MK591 bound to membranes in the absence of competitor, non-specific binding was defined as ^3H-MK591 in the presence of 0.1 mM MK-591. IC50 values were determined by plotting % inhibition versus log compound concentration and using a one site dose response model.
FLAP (human ALOX5AP expressed in COS-7 cell membranes), sequence (P20292 whole entry): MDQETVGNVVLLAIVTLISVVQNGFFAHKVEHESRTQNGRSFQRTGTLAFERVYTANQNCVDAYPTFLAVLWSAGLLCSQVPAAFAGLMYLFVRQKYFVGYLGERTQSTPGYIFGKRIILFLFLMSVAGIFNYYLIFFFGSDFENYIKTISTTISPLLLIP

In assay [2] the test system is LTB4 production in fresh human whole blood. Description: FLAP Whole Blood Assay (Test B), inhibition of LTB4 production. Type of assay: cell-based. As to conditions: then calcium ionophore A23187, LTB4 by EIA. Here is the method:
FLAP Whole Blood Assay (Test B)
Compounds were tested for the inhibition of LTB4 production in fresh human whole blood obtained by venapuncture using heparin to prevent clotting. 1.5 μL compounds or DMSO carrier were dispensed into the wells of a 96-well deep-well plate in 3-fold dilution series. 500 μL hepamised whole blood was then added followed by incubation at 37° C. for 30 min (method A) or 4 h (method B). 100 μL blood was subsequently transferred in triplicate to pre-dispensed 0.5 μL 2 mM calcium ionophore (calcimycin; A23187) in a second 96-well plate. Following incubation at 37° C. for 20 min, the assays were stopped by adding 10 μL of stop solution (100 mM EGTA, pH 7.4) and the plate was transferred to ice. The plate was centrifuged at 3000 rpm at 4° C. for 10 min and […] was transferred to a fresh 96 well plate containing 90 μL pre-dispensed EIA assay buffer (0.1 M phosphate buffer+0.1% BSA). LTB4 was then measured using reagents from a commercial EIA (Cayman Chemicals). LTB4 production was defined as the LTB4 level in the presence of a given concentration of test compound minus the LTB4 level in the presence of 50 nM 5-[[4-[(2S,4R)-4-hydroxy-2-methyl-tetrahydropyran-4-yl]-2-thienyl]sulfanyl]-1-methyl-indolin-2-one. (Preparation of 5-[[4-[(2S,4R)-4-hydroxy-2-methyl-tetrahydropyran-4-yl]-2-thienyl]sulfanyl]-1-methyl-indolin-2-one was described in Org. Process Res. Dev., 2005, 9, 555-569 or EP623614 B1). Inhibition of LTB4 production was defined as the LTB4 level in the presence of a given concentration of test compound expressed as a % of the LTB4 level in the presence of DMSO. IC50 values were determined by plotting % inhibition versus log compound concentration and using a one site dose response model.

The mark [3] stands for this setting: 0.5 h, method A: compound incubated with human whole blood at 37° C. for 30 min, read-out: IC50 nM (method A).
[4] abbreviates: method B: compound incubated with human whole blood at 37° C. for 4 h, read-out: IC50 nM (method B).

As usually defined, the IC50 is the concentration needed to halve the response being measured. In the case of `COc1c(NC(=O)C2CCCCC2C(=O)c2ccc(-c3cc[nH]n3)cc2)cnn1C` (racemic) [Example 14, (1R,2R and 1S,2S)—N-(5-Methoxy-1-methyl-1H-pyrazol-4-yl)-2-[4-(1H-pyrazol-3-yl)benzoyl]cyclohexanecarboxamide], the IC50 in assay [1] is 400 nM; in assay [2] (setting [3]) it was 654 nM.

Turning to `Cn1ncc(NC(=O)C2CCCCC2C(=O)c2ccc(-c3ccn[nH]3)cc2Cl)c1C(N)=O` (racemic) [Example 31, 4-[({(1R,2R and 1S,2S)-2-[2-Chloro-4-(1H-pyrazol-5-yl)benzoyl]-cyclohexyl}carbonyl)amino]-1-methyl-1H-pyrazole-5-carboxamide], the IC50 is 190 nM in assay [1] and 390 nM in assay [2] (setting [4]).

With `Cc1cc(-c2ccc(C(=O)C3CCCCC3C(=O)Nc3cnn(C)c3C(N)=O)c(Cl)c2)[nH]n1` (racemic) [Example 32, 4-[({(1R,2R and 1S,2S)-2-[2-Chloro-4-(3-methyl-1H-pyrazol-5-yl)benzoyl]cyclohexyl}carbonyl)amino]-1-methyl-1H-pyrazole-5-carboxamide], the IC50 worked out at 170 nM in assay [1] and 915 nM in assay [2] (setting [4]).

For `CCn1cc(NC(=O)C2CCCCC2C(=O)c2ccc(-c3ccn[nH]3)cc2)c(C(N)=O)n1` (racemic) [Example 42, 1-Ethyl-4-[({(1R,2R and 1S,2S)-2-[4-(1H-pyrazol-5-yl)benzoyl]-cyclohexyl}carbonyl)amino]-1H-pyrazole-3-carboxamide], the IC50 is 200 nM in assay [1] and 149 nM in assay [2] (setting [3]).

Turning to `Cc1cc(NC(=O)C2CCCCC2C(=O)c2ccc(-c3ccn[nH]3)cc2)on1` (racemic) [Example 44, (1R,2R and 1S,2S)—N-(3-Methyl-1,2-oxazol-5-yl)-2-[4-(1H-pyrazol-5-yl)benzoyl]cyclohexanecarboxamide], the IC50 in assay [1] worked out at 46 nM; in assay [2] (setting [3]), 197 nM.

`Cc1coc(NC(=O)C2CCCCC2C(=O)c2ccc(-c3ccn[nH]3)cc2)n1` (racemic) [Example 45, (1R,2R and 1S,2S)—N-(4-Methyl-1,3-oxazol-2-yl)-2-[4-(1H-pyrazol-5-yl)benzoyl]cyclohexanecarboxamide] showed an IC50 in assay [1] of 210 nM.

`Cc1cc(-c2ccc(C(=O)C3CCCCC3C(=O)Nc3cnn(C)c3C#N)cc2)[nH]n1` (racemic) [Example 46, (1R,2R and 1S,2S)—N-(5-Cyano-1-methyl-1H-pyrazol-4-yl)-2-[4-(3-methyl-1H-pyrazol-5-yl)benzoyl]cyclohexanecarboxamide]: the IC50 in assay [1] was 86 nM; in assay [2] (setting [3]), 170 nM.

Regarding `O=C(Nc1nc(C2CC2)ns1)C1CCCCC1C(=O)c1ccc(-c2ccn[nH]2)cc1` (racemic) [Example 47, (1R,2R and 1S,2S)—N-(3-Cyclopropyl-1,2,4-thiadiazol-5-yl)-2-[4-(1H-pyrazol-5-yl)benzoyl]cyclohexanecarboxamide], the IC50 in assay [1] stood at 53 nM; in assay [2] (setting [3]), 260 nM.

On to `Cc1cc(NC(=O)C2CCCCC2C(=O)c2ccc(-c3ccn[nH]3)cc2)sn1` (racemic) [Example 48, (1R,2R and 1S,2S)—N-(3-Methyl-1,2-thiazol-5-yl)-2-[4-(1H-pyrazol-5-yl)benzoyl]cyclohexanecarboxamide], for which the IC50 in assay [1] is 23 nM; in assay [2] (setting [3]) it was 270 nM.

Regarding `Cc1nsc(NC(=O)C2CCCCC2C(=O)c2ccc(-c3ccn[nH]3)cc2)c1C#N` (racemic) [Example 49, (1R,2R and 1S,1S)—N-(4-Cyano-3-methyl-1,2-thiazol-5-yl)-2-[4-(1H-pyrazol-5-yl)benzoyl]cyclohexanecarboxamide], the IC50 in assay [1] came out at 44 nM; in assay [2] (setting [3]), 640 nM.

Take `Cn1cc(NC(=O)C2CCCCC2C(=O)c2ccc(-c3cc[nH]n3)cc2)c(C(N)=O)n1` (single isomer, unassigned) [Example 1, 1-Methyl-4-[({(1R,2R or 1S,2S)-2-[4-(1H-pyrazol-3-yl)benzoyl]-cyclohexyl}carbonyl)amino]-1H-pyrazole-3-carboxamide]: the IC50 was 73 nM in assay [1] and 112 nM in assay [2] (setting [3]).

On to `Cc1cc(-c2ccc(C(=O)C3CCCCC3C(=O)Nc3cn(C)nc3C#N)cc2)[nH]n1` (single isomer, unassigned) [Example 5b, (1R,2R or 1S,2S)—N-(3-Cyano-1-methyl-1H-pyrazol-4-yl)-2-[4-(3-methyl-1H-pyrazol-5-yl)benzoyl]cyclohexanecarboxamide], for which the IC50 in assay [2] (setting [4]) was found to be 95 nM.

With `Cn1cc(NC(=O)C2CCCCC2C(=O)c2ccc(-c3cc[nH]n3)cc2)c(C#N)n1` (single isomer, unassigned) [Example 12, (1R,2R or 1S,2S)—N-(3-Cyano-1-methyl-1H-pyrazol-4-yl)-2-[4-(1H-pyrazol-3-yl)benzoyl]cyclohexanecarboxamide], the IC50 in assay [1] worked out at 41 nM; in assay [2] (setting [4]), 100 nM.

`Cn1ncc(NC(=O)C2CCCCC2C(=O)c2ccc(-c3cc[nH]n3)cc2)c1C#N` (single isomer, unassigned) [Example 18a, (1R,2R or 1S,2S)—N-(5-Cyano-1-methyl-1H-pyrazol-4-yl)-2-[4-(1H-pyrazol-3-yl)benzoyl]cyclohexanecarboxamide] registered a half-maximal inhibitory concentration (IC50) in assay [1] of 3700 nM.

With `Cn1ncc(NC(=O)C2CCCCC2C(=O)c2ccc(-c3cc[nH]n3)cc2)c1C#N` (single isomer, unassigned) [Example 18b, (1S,2S or 1R,2R)—N-(5-Cyano-1-methyl-1H-pyrazol-4-yl)-2-[4-(1H-pyrazol-3-yl)benzoyl]cyclohexanecarboxamide], the figures for the IC50 in assay [1] and in assay [2] (setting [4]) were 28 nM and 114 nM, respectively.

In the case of `Cc1cc(-c2ccc(C(=O)C3CCCCC3C(=O)Nc3cn(C)nc3C(N)=O)c(F)c2)[nH]n1` (single isomer, unassigned) [Example 36, 4-[({(1R,2R or 1S,2S)-2-[2-Fluoro-4-(3-methyl-1H-pyrazol-5-yl)benzoyl]-cyclohexyl}carbonyl)amino]-1-methyl-1H-pyrazole-3-carboxamide], in assay [2] (setting [4]), the IC50 was determined as 148 nM.

Take `Cc1cc(-c2ccc(C(=O)[C@@H]3CCCC[C@H]3C(=O)Nc3cnn(C)c3C(N)=O)cc2)[nH]n1` [Example 3, 1-Methyl-4-[({(1R,2R)-2-[4-(3-methyl-1H-pyrazol-5-yl)benzoyl]cyclohexyl}-carbonyl)amino]-1H-pyrazole-5-carboxamide]: in assay [2] (setting [4]), the IC50 came out at 70 nM.

For `Cc1cc(-c2ccc(C(=O)[C@@H]3CCCC[C@H]3C(=O)Nc3cn(C)nc3C(N)=O)cc2)n[nH]1` [Example 4, 1-Methyl-4-[({(1R,2R)-2-[4-(3-methyl-1H-pyrazol-5-yl)benzoyl]-cyclohexyl}carbonyl)amino]-1H-pyrazole-3-carboxamide], the IC50 in assay [2] (setting [4]) is 290 nM.

As for `Cn1cc(NC(=O)[C@@H]2CCCC[C@H]2C(=O)c2ccc(-c3ccn[nH]3)cc2)c(OC(F)F)n1` [Example 9, (1R,2R)—N-[3-(Difluoromethoxy)-1-methyl-1H-pyrazol-4-yl]-2-[4-(1H-pyrazol-5-yl)benzoyl]cyclohexanecarboxamide], the IC50 in assay [2] (setting [4]) was found to be 110 nM.

Take `Cc1cc(-c2ccc(C(=O)[C@@H]3CCCC[C@H]3C(=O)Nc3cnn(C)c3S(N)(=O)=O)cc2)[nH]n1` [Example 13, (1R,2R)-2-[4-(3-Methyl-1H-pyrazol-5-yl)benzoyl]-N-(1-methyl-5-sulfamoyl-1H-pyrazol-4-yl)cyclohexanecarboxamide]: the IC50 in assay [2] (setting [4]) is 260 nM.

`CNC(=O)c1nn(C)cc1NC(=O)C1CCCCC1C(=O)c1ccc(-c2cc[nH]n2)cc1` [Example 20, N,1-Dimethyl-4-[({(1R,2R and 1S,2S)-2-[4-(1H-pyrazol-3-yl)benzoyl]-cyclohexyl}carbonyl)amino]-1H-pyrazole-3-carboxamide]: in assay [2] (setting [3]), the IC50 came to 281 nM.

For the compound `Cn1nnc(NC(=O)C2CCCCC2C(=O)c2ccc(-c3ccn[nH]3)cc2)c1C1CC1` [Example 33, (1R,2R and 1S,2S)—N-(5-Cyclopropyl-1-methyl-1H-1,2,3-triazol-4-yl)-2-[4-(1H-pyrazol-5-yl)benzoyl]cyclohexanecarboxamide], the IC50 in assay [2] (setting [4]) came to 117 nM.
